In patent US10654834B2 (Venenum Biodesign, LLC, priority 2016, dated 2020):
Read-outs that look alike come from different tables or passages of the source.

What was measured:
human TGR5 receptor = molecular target: T1, human TGR5 receptor (Homo sapiens, UniProt Q8TDU6); assay: Human TGR5 cAMP production assay (hTGR5-CHO cells, DiscoveRx cAMP XS+ kit); assay type: cell-based; conditions: luminescent cAMP assay, read-out: Human TGR5 Lum. cAMP Activity (EC50)
T1 construct: host or cells: CHO-K1 (hTGR5-CHO)
T1 sequence (Q8TDU6 1-330): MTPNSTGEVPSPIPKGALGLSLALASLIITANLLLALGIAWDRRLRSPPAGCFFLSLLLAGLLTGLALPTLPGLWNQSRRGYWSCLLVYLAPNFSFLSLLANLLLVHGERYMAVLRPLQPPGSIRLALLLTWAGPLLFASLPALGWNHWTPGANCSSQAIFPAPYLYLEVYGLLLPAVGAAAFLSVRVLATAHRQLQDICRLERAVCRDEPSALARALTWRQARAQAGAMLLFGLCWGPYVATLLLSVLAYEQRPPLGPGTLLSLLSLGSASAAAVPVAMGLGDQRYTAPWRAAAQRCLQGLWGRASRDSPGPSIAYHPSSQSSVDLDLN
Method in brief: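 EC50 values come from luminescent enzyme-complementation cAMP detection, read after overnight incubation. Beforehand, hTGR5-expressing CHO-K1 cells with IBMX and anti-cAMP antibody were exposed 1 h at room temperature to serially diluted (half-log) compounds.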

Mouse STC-1 cells = assay: STC-1 GLP-1 assay (GLP-1 secretion); assay type: cell-based
Method in brief: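 Secreted active GLP-1 was measured by HTRF after overnight room-temperature incubation of supernatant with the conjugates. Supernatants came from a 2 h, 37° C. compound exposure (12-point half-log series) in HBSS with DPP-IV and protease inhibitors and 0.1% fatty acid free BSA. STC-1 cells had been seeded two days earlier in stripped-serum DMEM; EC50 reported.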

[1] = Mouse STC-1 cells, GLP-1 secretion, 2 h, read-out: Mouse STC-1 HTRF GLP-1 Activity (EC50)

Row | Compound | EC50 (human TGR5 receptor) | EC50 (Mouse STC-1 cells; [1]) | EC50 (Mouse STC-1 cells; Mus musculus, STC-1, read-out: EC50 concentration of GLP-1 stimulation in STC-1 cells)
1 | O=C(CCCC1CCN(c2cc(N3CCC[C@H]3C(=O)NCCc3ccc(C(F)(F)F)cc3)nc(C(F)(F)F)n2)CC1)NCCS(=O)(=O)O [Compound 58, (S)-2-(4-(1-(2-(trifluoromethyl)-6-(2-((4-(trifluoromethyl)phenethyl)-carbamoyl)-pyrrolidin-1-yl)-pyrimidin-4-yl)piperidin-4-yl)butanamido)ethanesulfonic acid] | < 100 nM | < 100 nM | 
2 | N#Cc1ccc(CCNC(=O)[C@@H]2CCCN2c2cc(N3CCC(CCCC(=O)NCCS(=O)(=O)NCC(=O)O)CC3)nc(C(F)(F)F)n2)cc1 [Compound 115, (S)-2-(2-(4-(1-(6-(2-((4-cyanophenethyl)carbamoyl)pyrrolidin-1-yl)-2-(trifluoromethyl)pyrimidin-4-yl)piperidin-4-yl)butanamido)-ethylsulfonamido)acetic acid] | < 100 nM | < 100 nM | 
3 | N#Cc1ccc(CCNC(=O)[C@@H]2CCCN2c2cc(N3CCC(CCCC(=O)N[C@@H](CCCNC(=N)N)C(=O)N[C@@H](CCCNC(=N)N)C(=O)O)CC3)cc(C(F)(F)F)n2)cc1 [Compound 202, (S)-2-((S)-2-(4-(1-(2-((S)-2-((4-cyanophenethyl)carbamoyl)pyrrolidin-1-yl)-6-(trifluoromethyl)pyridin-4-yl)piperidin-4-yl)butanamido)-5-guanidinopentanamido)-5-guanidinopentanoic acid] | < 100 nM | < 100 nM | 
4 | N#Cc1ccc(CCNC(=O)[C@@H]2CCCN2c2cc(N3CCC(CCCC(=O)NCCS(=O)(=O)O)CC3)cc(C(F)(F)F)n2)cc1 [Compound 199, (S)-2-(4-(1-(2-(2-((4-cyanophenethyl)carbamoyl)pyrrolidin-1-yl)-6-(trifluoromethyl)pyridin-4-yl)piperidin-4-yl)butanamido)ethanesulfonic acid] | < 100 nM | < 100 nM | 
5 | N#Cc1ccc(CCNC(=O)[C@@H]2CCCN2c2cc(-c3ccc(CO)cc3)cc(C(F)(F)F)n2)cc1 [Compound 204, (S)—N-(4-cyanophenethyl)-1-(4-(4-(hydroxymethyl)phenyl)-6-(trifluoromethyl)pyridin-2-yl)pyrrolidine-2-carboxamide] | < 100 nM | 100 to 999 nM | 
6 | N#Cc1ccc(CCNC(=O)[C@@H]2CCCN2c2cc(N3CCC(CCNS(=O)(=O)CCNC(=N)N)CC3)nc(C(F)(F)F)n2)cc1 [Compound 130, (S)-N-(4-cyanophenethyl)-1-(6-(4-(2-(2-guanidinoethylsulfonamido)ethyl)piperidin-1-yl)-2-(trifluoromethyl)pyrimidin-4-yl)pyrrolidine-2-carboxamide] | < 100 nM | < 100 nM | 
7 | N#Cc1ccc(CCNC(=O)[C@@H]2CCCN2c2cc(N3CCC(CCCNC(=O)NCCS(N)(=O)=O)CC3)nc(C(F)(F)F)n2)cc1 [Compound 120, (S)-N-(4-cyanophenethyl)-1-(6-(4-(3-(3-(2-sulfamoylethyl)ureido)propyl)piperidin-1-yl)-2-(trifluoromethyl)pyrimidin-4-yl)pyrrolidine-2-carboxamide] | < 100 nM | < 100 nM | 
8 | N#Cc1ccc(CCNC(=O)[C@@H]2CCCN2c2cc(-c3ccc(CCC(=O)NCS(=O)(=O)O)cc3)cc(C(F)(F)F)n2)cc1 [Compound 206, (S)-(3-(4-(2-(2-((4-cyanophenethyl)carbamoyl)pyrrolidin-1-yl)-6-(trifluoromethyl)pyridin-4-yl)phenyl)propanamido)methanesulfonic acid] | < 100 nM | 100 to 999 nM | 

Further lines, results first:

Row | EC50 (human TGR5 receptor) | EC50 (Mouse STC-1 cells; [1]) | EC50 (Mouse STC-1 cells; Mus musculus, STC-1, read-out: EC50 concentration of GLP-1 stimulation in STC-1 cells) | Compound
9 | < 100 nM | < 100 nM |  | N#Cc1ccc(CCNC(=O)[C@@H]2CCN2c2cc(N3CCC(CCNC(=O)NCS(=O)(=O)O)CC3)nc(C(F)(F)F)n2)cc1 [Compound 270, (S)-(3-(2-(1-(6-(2-((4-cyanophenethyl)carbamoyl)azetidin-1-yl)-2-(trifluoromethyl)pyrimidin-4-yl)piperidin-4-yl)ethyl)ureido)-methanesulfonic acid]
10 | < 100 nM | < 100 nM |  | N#Cc1ccc(CCNC(=O)[C@@H]2CCN2c2cc(N3CCC(CCCC(=O)NCCS(=O)(=O)O)CC3)nc(C(F)(F)F)n2)cc1 [Compound 249, (S)-2-(4-(1-(6-(2-((4-cyanophenethyl)carbamoyl)azetidin-1-yl)-2-(trifluoromethyl)pyrimidin-4-yl)piperidin-4-yl)butanamido)ethanesulfonic acid]
11 | < 100 nM | 100 to 999 nM |  | N#Cc1ccc(CCNC(=O)[C@@H]2CCN2c2cc(N3CCC(CCCC(=O)NC[C@@H](O)[C@H](O)[C@@H](O)[C@@H](O)CO)CC3)nc(C(F)(F)F)n2)cc1 [Compound 260, (S)—N-(4-cyanophenethyl)-1-(6-(4-(4-oxo-4-(((2R,3S,4S,5S)-2,3,4,5,6-pentahydroxyhexyl)amino)butyl)piperidin-1-yl)-2-(trifluoromethyl)pyrimidin-4-yl)azetidine-2-carboxamide]
12 | < 100 nM | < 100 nM |  | O=C(O)CCC1CCN(c2cc(N3CC[C@H]3C(=O)NCCc3ccc(C(F)(F)F)cc3)nc(C(F)(F)F)n2)CC1 [Compound 232, (S)-3-(1-(2-(trifluoromethyl)-6-(2-((4-(trifluoromethyl)phenethyl)carbamoyl)azetidin-1-yl)pyrimidin-4-yl)piperidin-4-yl)propanoic acid]
13 | < 100 nM | < 100 nM |  | N[C@@H](CS(=O)(=O)O)C(=O)NCCC1CCN(c2cc(N3CC[C@H]3C(=O)NCCc3ccc(C(F)(F)F)cc3)nc(C(F)(F)F)n2)CC1 [Compound 278, (R)-2-amino-3-oxo-3-((2-(1-(2-(trifluoromethyl)-6-((S)-2-((4-(trifluoromethyl)-phenethyl)carbamoyl)azetidin-1-yl)pyrimidin-4-yl)piperidin-4-yl)ethyl)amino)-propane-1-sulfonic acid]
14 | < 100 nM | 100 to 999 nM |  | N#Cc1ccc(CCNC(=O)[C@@H]2CCN2c2cc(N3CCC(CCCC(=O)NCCCCNC(=N)N)CC3)nc(C(F)(F)F)n2)cc1 [Compound 283, (S)-N-(4-cyanophenethyl)-1-(6-(4-(4-((4-guanidinobutyl)amino)-4-oxobutyl)piperidin-1-yl)-2-(trifluoromethyl)pyrimidin-4-yl)azetidine-2-carboxamide]
15 | < 100 nM | < 100 nM | ~55 nM | N#Cc1ccc(CCNC(=O)[C@@H]2CCN2c2cc(N3CCC(CCNC(=O)NCCC(=O)O)CC3)nc(C(F)(F)F)n2)cc1 [Compound 268, (S)-3-(3-(2-(1-(6-(2-((4-cyanophenethyl)carbamoyl)azetidin-1-yl)-2-(trifluoromethyl)pyrimidin-4-yl)piperidin-4-yl)ethyl)ureido)propanoic acid]
16 | < 100 nM | < 100 nM |  | N#C/N=C(\NCCC(=O)O)NCCC1CCN(c2cc(N3CC[C@H]3C(=O)NCCc3ccc(C#N)cc3)nc(C(F)(F)F)n2)CC1 [Compound 351, (S,Z)-3-(2-cyano-3-(2-(1-(6-(2-((4-cyanophenethyl)carbamoyl)azetidin-1-yl)-2-(trifluoromethyl)pyrimidin-4-yl)piperidin-4-yl)ethyl)guanidino)propanoic acid]
